Laboratory results taken from patent publication EP1137632B1, “THIOUREA INHIBITORS OF HERPES VIRUSES” (Wyeth, priority 1998, dated 2000).
Converted amounts (≈) assume the structure as drawn.

Tests used:
VZV strain Ellen = test: VZV antiviral (ELISA) assay in human foreskin fibroblast cells; format: cell-based, varicella-zoster virus; conditions: Human alphaherpesvirus 3; VZV strain Ellen in HFF cells; read-out: IC50 (ug/ml) VZV
In short: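 HFF cells infected with VZV Ellen (MOI <0.1) overnight, then plated at 3.5x10^4 cells/well with compound in DMEM + 2% FBS for three days at 37°C, 5% CO2. Viral glycoprotein II quantified by ELISA with β-galactosidase-linked secondary and 4-methylumbelliferyl-galactoside fluorescence (365/450 nm); IC50 versus no-compound fluorescence.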

HSV-1 = test: HSV antiviral (ELISA) assay in Vero cells; format: cell-based, herpes simplex virus type 1; conditions: Human alphaherpesvirus 1; HSV-1 in Vero cells; read-out: IC50 (ug/ml) HSV
In short: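 Vero cells in DMEM/2% FBS treated with compound 30 min before HSV-1 infection (MOI 0.006), ~24 h at 37 °C. Viral glycoprotein D measured by cell ELISA with β-galactosidase-linked secondary and fluorogenic methylumbelliferyl galactoside (ex 365/em 450 nm); IC50 versus no-compound fluorescence.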

[1] = system: HCMV recombinant mutant virus; test: microbe, parasite or virus in culture; format: cell-based, human cytomegalovirus; conditions: Human betaherpesvirus 5, read-out: IC50 (ug/ml) HCMV
In short: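 Human foreskin fibroblasts were infected with a recombinant HCMV carrying a beta-glucuronidase gene under a viral promoter, in the presence of compound. At 96 h post-infection, lysate beta-glucuronidase activity was read colorimetrically or fluorometrically as a replication marker. IC50 came from the compound dose range.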

SMILES | IC50 (VZV strain Ellen) | IC50 (HSV-1) | IC50 [1]
CCCCOc1cc(NC(=S)NC(C)c2ccc(C#N)cc2)ccc1NC(=O)c1ccccc1F (stereo not drawn) [Example 1056, N-(2-Butoxy-4-{3-[1-(4-cyano-phenyl)-ethyl]-thioureido}-phenyl)-2-fluoro-benzamide] | 0.4 µg/mL (≈ 0.815 µM) | > 10 µg/mL | 2.5 µg/mL (≈ 5.1 µM)
CC(NC(=S)Nc1ccc(NC(=O)c2ccccc2F)c(Cl)c1)c1ccc(C#N)cc1 (stereo not drawn) [Example 1039, N-(2-Chloro-4-{3-[1-(4-cyano-phenyl)-ethyl]-thioureido}-phenyl)-2-fluoro-benzamide] | 0.25 µg/mL (≈ 0.552 µM) | 7.2 µg/mL (≈ 15.9 µM) | 1.3 µg/mL (≈ 2.87 µM)
